From ChEMBL document CHEMBL5113377, “Development of Selective FXIa Inhibitors Based on Cyclic Peptides and Their Application for Safe Anticoagulation” (J Med Chem, 2021)
*1 amine or outer side, *2 acyl side, *3 side chain or, on linkers, in order; H or OH if unused. Where a SMILES comes first, the peptide text is derived from it. Bridges are numbered along the chain shown (N, C = ends). CH2COCH2 = O=C(C[*:1])C[*:2]; X1 = C(=C\C[*:2])/C[*:1]

Key:
Plasma [1] = experiment: Anticoagulant activity in CaCl2-activated human plasma assessed as prolongation of activated partial thromboplastin time; assay type: functional
Plasma [2] = experiment: Anticoagulant activity in CaCl2-activated human plasma assessed as concentration required to achieve 1.6 fold prolongation of activated partial thromboplastin time; assay type: functional
Blood [3] = experiment: Anticoagulant activity in human blood assessed as concentration required to achieve the effects achieved with minimal therapeutic dose of UFH for prolongation of aPTT; assay type: functional
Coagulation factor XI = Coagulation factor XI (Homo sapiens, UniProt P03951); experiment: Inhibition of biotinylated human FXIa assessed as inhibition of p-nitroaniline release using Pyr-Pro-Arg-pNA as substrate measured for 20 mins
Plasma [4] = experiment: Anticoagulant activity in CaCl2-activated human plasma assessed as concentration required to achieve 5.1 fold prolongation of activated partial thromboplastin time; assay type: functional
Plasma [5] = experiment: Anticoagulant activity in CaCl2-activated human plasma assessed as fold prolongation of activated partial thromboplastin time at 30 uM relative to control; assay type: functional
Homo sapiens [6] = organism: Homo sapiens; experiment: Selectivity for biotinylated human FXIa over beta-FXIIa (unknown origin)
Homo sapiens [7] = organism: Homo sapiens; experiment: Selectivity for biotinylated human FXIa over plasma kallikrein (unknown origin)
Homo sapiens [8] = organism: Homo sapiens; experiment: Selectivity for biotinylated human FXIa over thrombin (unknown origin)
Plasma [9] = experiment: Anticoagulant activity in rabbit plasma assessed as prolongation of activated partial thromboplastin time; assay type: functional, Oryctolagus cuniculus
Homo sapiens [10] = organism: Homo sapiens; experiment: Selectivity for biotinylated human FXIa over tPA (unknown origin)
[11] = Stability in human plasma assessed as half life at 40 uM measured for 48 hrs; assay type: ADME, cell-free
Homo sapiens [12] = organism: Homo sapiens; experiment: Selectivity for biotinylated human FXIa over uPA (unknown origin)
Blood [13] = experiment: Anticoagulant activity in human whole blood assessed as activated clotting time; assay type: functional
Homo sapiens [14] = organism: Homo sapiens; experiment: Selectivity for biotinylated human FXIa over plasmin (unknown origin)
Homo sapiens [15] = organism: Homo sapiens; experiment: Selectivity for biotinylated human FXIa over trypsin (unknown origin)

Coagulation factor XI, sequence (P03951 19-387 limits assumed): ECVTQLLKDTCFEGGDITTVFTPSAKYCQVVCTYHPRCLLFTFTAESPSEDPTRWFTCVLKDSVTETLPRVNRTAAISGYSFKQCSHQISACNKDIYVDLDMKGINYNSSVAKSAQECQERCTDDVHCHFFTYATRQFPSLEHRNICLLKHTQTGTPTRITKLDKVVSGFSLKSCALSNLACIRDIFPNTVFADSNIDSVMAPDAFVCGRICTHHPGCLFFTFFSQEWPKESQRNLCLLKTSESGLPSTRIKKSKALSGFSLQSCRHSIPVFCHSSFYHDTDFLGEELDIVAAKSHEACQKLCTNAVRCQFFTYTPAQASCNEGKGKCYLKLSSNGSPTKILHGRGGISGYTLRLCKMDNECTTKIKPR
Coagulation factor XI, sequence (P03951 388-625 limits assumed): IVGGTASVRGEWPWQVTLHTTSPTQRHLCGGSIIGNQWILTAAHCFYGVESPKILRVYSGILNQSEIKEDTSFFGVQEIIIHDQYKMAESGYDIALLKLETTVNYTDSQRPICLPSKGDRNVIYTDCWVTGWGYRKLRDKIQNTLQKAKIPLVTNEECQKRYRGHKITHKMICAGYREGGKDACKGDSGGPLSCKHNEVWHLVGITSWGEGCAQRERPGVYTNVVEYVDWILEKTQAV

Compound	EC2 (Plasma [1]) [µM]	Ki (Coagulation factor XI) [nM]	fold change (FC) (Plasma [5])	also measured
CC[C@H](C)[C@@H]1NC(=O)[C@H](CCCNC(=N)N)NC(=O)[C@H]([C@@H](C)O)NC(=O)[C@H](CC(C)C)NC(=O)[C@H](C)NC(=O)[C@H](CO)NC(=O)[C@@H](NC(=O)[C@H](CCCNC(=N)N)NC(=O)[C@H](CCCNC(=N)N)NC(=O)[C@@H](NC(=O)[C@H](C)NC(=O)[C@@H](N)CCCNC(=N)N)C(C)C)CSSC[C@@H](C(=O)N2CCC[C@H]2C(=O)O)NC(=O)[C@H](C(C)C)NC1=O (H-RAVRRCSALTRIVCP-OH; disulfide 6-14)	1.5	2.8	–	Activity (Plasma [2]): 0.34 µM; Activity (Blood [3]): 0.77 µM; Activity (Plasma [4]): 45 µM
CC(C)C[C@@H]1NC(=O)CNC(=O)[C@H](CCC(N)=O)NC(=O)[C@@H](NC(=O)[C@@H](N)CCCNC(=N)N)CSCC(=O)CSC[C@@H](C(=O)N[C@@H](Cc2ccccc2)C(=O)N[C@H](C(=O)N[C@@H](CO)C(=O)N[C@@H](CC(N)=O)C(=O)N[C@@H](CCCCN)C(=O)N[C@@H](Cc2ccc(O)cc2)C(=O)N[C@H]2CSCC(=O)CSC[C@@H](C(=O)N3CCC[C@H]3C(=O)O)NC(=O)[C@H](CCCNC(=N)N)NC(=O)[C@H](C)NC2=O)[C@@H](C)O)NC(=O)[C@H](Cc2c[nH]c3ccccc23)NC1=O (H-RCQGLWCFTSNKYCARCP-OH; linker 2-7, 14-17 via CH2COCH2)	–	62	3.2	–
CSCC[C@@H]1NC(=O)CNC(=O)[C@H](CCCNC(=N)N)NC(=O)[C@@H](NC(=O)CN)CSCC(=O)CSC[C@@H](C(=O)N[C@H](C(=O)N[C@@H](CCCNC(=N)N)C(=O)N[C@H](C(=O)N[C@@H](CO)C(=O)N2CCC[C@H]2C(=O)N[C@@H](Cc2ccccc2)C(=O)N[C@H]2CSCC(=O)CSC[C@@H](C(=O)N3CCC[C@H]3C(=O)O)NC(=O)[C@H](CCCNC(=N)N)NC(=O)[C@H](C)NC2=O)[C@@H](C)O)C(C)C)NC(=O)[C@H](CO)NC1=O (H-GCRGMSCVRTSPFCARCP-OH; linker 2-7, 14-17 via CH2COCH2)	–	260	2.4	–
CC(C)C[C@@H]1NC(=O)[C@H](CCC(N)=O)NC(=O)[C@@H]2CCCN2C(=O)[C@@H](NC(=O)[C@@H](N)CO)CSC/C=C/CSC[C@@H](C(=O)N[C@@H](CO)C(=O)N[C@@H](CCCNC(=N)N)C(=O)N[C@H](C(=O)N[C@@H](CCCNC(=N)N)C(=O)N[C@H]2CSC/C=C/CSC[C@@H](C(=O)N[C@@H](CO)C(=O)O)NC(=O)[C@H](CC(=O)O)NC(=O)[C@H](CC(C)C)NC(=O)[C@H](C(C)C)NC2=O)[C@@H](C)O)NC(=O)[C@H](Cc2ccc(O)cc2)NC(=O)[C@H](CCC(=O)O)NC1=O (H-SCPQLEYCSRTRCVLDCS-OH; linker 2-8, 13-17 via X1)	–	31	1.6	–
CC(C)[C@@H]1NC(=O)[C@H](CCCNC(=N)N)NC(=O)[C@H](C)NC(=O)[C@H](CC(N)=O)NC(=O)[C@H](CO)NC(=O)[C@@H](NC(=O)[C@H](CO)NC(=O)CNC(=O)[C@H](CCC(N)=O)NC(=O)[C@H](C)NC(=O)[C@H](CCCNC(=N)N)NC(=O)[C@H](CCCNC(=N)N)NC(=O)[C@@H]2CSCc3cccc(n3)CSC[C@@H](NC(=O)[C@@H](N)CO)C(=O)N2)CSCc2cccc(n2)CSC[C@@H](C(=O)N[C@@H](Cc2cnc[nH]2)C(=O)O)NC(=O)[C@H](C(C)C)NC1=O	–	270	1.9	–
CC[C@H](C)[C@@H]1NC(=O)[C@H](CCCNC(=N)N)NC(=O)[C@H]([C@@H](C)O)NC(=O)[C@H](CC(C)C)NC(=O)[C@H](C)NC(=O)[C@H](CO)NC(=O)[C@@H](NC(=O)[C@H](CCCNC(=N)N)NC(=O)[C@H](CCCNC(=N)N)NC(=O)[C@@H](NC(=O)[C@H](C)NC(=O)[C@H](CCCCN)NC(=O)[C@H](CO)NC(=O)[C@H](CO)NC(=O)[C@@H](N)CCC(N)=O)C(C)C)CSSC[C@@H](C(=O)N2CCC[C@H]2C(=O)O)NC(=O)[C@H](C(C)C)NC1=O (H-QSSKAVRRCSALTRIVCP-OH; disulfide 9-17)	4.9	2.6	–	–
CSCC[C@H](NC(=O)[C@H](CO)NC(=O)[C@@H](NC(=O)[C@H](CCCNC(=N)N)NC(=O)[C@H](CCC(N)=O)NC(=O)[C@H](CCC(N)=O)NC(=O)[C@@H]1CSCC(=O)CSC[C@H](NC(=O)[C@@H](N)CC(C)C)C(=O)N[C@@H](CO)C(=O)N[C@@H](CO)C(=O)N2CCC[C@H]2C(=O)N[C@@H](CO)C(=O)N1)[C@@H](C)O)C(=O)N[C@H]1CSCC(=O)CSC[C@H](C(=O)N2CCC[C@H]2C(=O)O)NC(=O)[C@H](CCCNC(=N)N)NC(=O)[C@H](Cc2ccc(O)cc2)NC1=O	–	100	1.9	–
CC[C@H](C)[C@@H]1NC(=O)[C@H](CCCNC(=N)N)NC(=O)[C@H]([C@@H](C)O)NC(=O)[C@H](CC(C)C)NC(=O)[C@H](C)NC(=O)[C@H](CO)NC(=O)[C@@H](NC(=O)[C@H](CCCNC(=N)N)NC(=O)[C@H](CCCNC(=N)N)NC(=O)[C@@H](NC(=O)[C@H](C)NC(=O)[C@H](CCCCN)NC(=O)[C@@H]2CSCc3cccc(n3)CSC[C@@H](NC(=O)[C@@H](N)CCC(N)=O)C(=O)N2)C(C)C)CSCc2cccc(n2)CSC[C@@H](C(=O)N2CCC[C@H]2C(=O)O)NC(=O)[C@H](C(C)C)NC1=O	2.9	0.9	2.7	Selectivity ratio (Homo sapiens [6]): > 1000; Selectivity ratio (Homo sapiens [7]): > 1000; Selectivity ratio (Homo sapiens [8]): > 1000; EC2 (Plasma [9]): 2 µM; Selectivity ratio (Homo sapiens [10]): > 1000; half-life at 40 µM [11]: 456 min; Selectivity ratio (Homo sapiens [12]): > 1000; EC1.5 (Blood [13]): 12 µM; Selectivity ratio (Homo sapiens [14]): > 1000; Selectivity ratio (Homo sapiens [15]): > 1000
CC(C)C[C@H](NC(=O)[C@@H](NC(=O)[C@@H]1CSC/C=C/CSC[C@H](NC(=O)[C@@H](N)CCC(=O)O)C(=O)N[C@@H](CCCCN)C(=O)N[C@@H]([C@@H](C)O)C(=O)N2CCC[C@H]2C(=O)N[C@@H](CCCNC(=N)N)C(=O)N[C@@H](CCC(=O)O)C(=O)N1)[C@@H](C)O)C(=O)N[C@H](C(=O)N[C@@H](CCCNC(=N)N)C(=O)N[C@H]1CSC/C=C/CSC[C@@H](C(=O)N[C@@H](CCC(=O)O)C(=O)O)NC(=O)[C@H](CO)NC(=O)[C@H](Cc2cnc[nH]2)NC(=O)[C@H](C(C)C)NC1=O)[C@@H](C)O (H-ECKTPRECTLTRCVHSCE-OH; linker 2-8, 13-17 via X1)	–	7.7	2	–
CC[C@H](C)[C@@H]1NC(=O)[C@@H](NC(=O)[C@H](CCCNC(=N)N)NC(=O)[C@@H](NC(=O)[C@H](CC(C)C)NC(=O)[C@@H](NC(=O)[C@@H]2CSC/C=C/CSC[C@H](NC(=O)[C@@H](N)CO)C(=O)N[C@@H](CCC(=O)O)C(=O)N[C@@H]([C@@H](C)O)C(=O)N3CCC[C@H]3C(=O)N[C@@H](CCC(N)=O)C(=O)N[C@@H](C)C(=O)N2)[C@@H](C)O)[C@@H](C)O)CSC/C=C/CSC[C@@H](C(=O)N[C@@H](CC(N)=O)C(=O)O)NC(=O)[C@H](CCC(N)=O)NC(=O)[C@H]([C@@H](C)O)NC1=O (H-SCETPQACTLTRCITQCN-OH; linker 2-8, 13-17 via X1)	–	72	1.7	–
CC[C@H](C)[C@@H]1NC(=O)[C@H](CCCNC(=N)N)NC(=O)[C@H]([C@@H](C)O)NC(=O)[C@H](CC(C)C)NC(=O)[C@H](C)NC(=O)[C@H](CO)NC(=O)[C@@H](NC(=O)[C@H](CCCNC(=N)N)NC(=O)[C@H](CCCNC(=N)N)NC(=O)[C@@H](NC(=O)[C@H](C)NC(=O)[C@H](CCCNC(=N)N)NC(=O)[C@H](CO)NC(=O)[C@H](CO)NC(=O)[C@@H](N)CCC(N)=O)C(C)C)CSSC[C@@H](C(=O)N2CCC[C@H]2C(=O)O)NC(=O)[C@H](C(C)C)NC1=O (H-QSSRAVRRCSALTRIVCP-OH; disulfide 9-17)	3.1	2.4	–	–
